# Measurements: BindingDB's records for doi:10.1111/j.1747-0285.2012.01443.x (Pfizer, 2012)
# Target: Tyrosine-protein kinase SYK (Homo sapiens, UniProt P43405)
# Assay: Syk Enzyme Assay
# Details: pH 7.4; 25 °C
# Description: A Lance TR-FRET assay (Perkin Elmer) was used to measure and compare the potency of compounds against Syk kinase domain.
structure (smiles),measurement,value
"COc1cc2nccc(Oc3ccc(NC(=O)N[C@@H]4C[C@H]4c4ccccc4)nc3)c2cc1OC [Dimethoxyquinoline, 1]",IC50,320 nM
